Assays:
[1] = system: mRNA expression of TLR4, MyD88, IL-1β, and IL-6; experiment: LPS/D-GalN-induced ALI, quantitative PCR of liver tissues; format: in vivo, C57BL/6 mice; conditions: P < 0.01
Description: All mice were randomly divided into six groups (n = 8): normal control group (NC); LPS/D-GalN group; OBB-ASDs25 group (25 mg/kg OBB-HPMCAS); OBB-ASDs50 group (50 mg/kg OBB-HPMCAS); OBB-SUS group (50 mg/kg OBB suspension); Silymarin group (100 mg/kg Silymarin). The drug dosage design for the ALI trial was primarily based on our previous research findings[25] and preclinical experiments. Except for NC and LPS/D-GalN groups, all other groups of mice were respectively pretreated by gavage with the corresponding dose of OBB-ASDs, OBB-SUS, and Silymarin once daily for 7 consecutive days. Mice in NC and LPS/D-GalN group were given the same volume of saline by intragastric administration. At 2 h postdose, all mice (except the NC group) were exposed to 30 μg/kg LPS and 600 mg/kg D-GalN. Mice in NC group were received the same volume of PBS intraperitoneally. After challenging for 6 h, blood samples were collected from the eyeball vein under 2% sodium pentobarbital anesthesia. Subsequently, the liver was immediately dissected, weighed, washed with saline, and stored at - 80 °C until further analyzed. […] Quantitative PCR was performed on an Applied Biosystems 7500 Real-Time system (ABI 7500, RRID: SCR_018051). Primer sequences against mouse cDNAs used in qPCR were listed as follows: TLR4, [NT] (reverse); MyD88, […] (reverse); IL-6, [NT] (reverse); IL-1β, [NT] (reverse); and GAPDH, […] (reverse).

[2] = system: LPS/D-GalN-induced acute liver injury (ALI) mice; experiment: LPS/D-GalN-induced ALI, liver pathological changes (H&E); format: in vivo, C57BL/6 mice; conditions: gavage once daily 7 days; OBB-ASDs 25 and 50 mg/kg, OBB-SUS 50 mg/kg, Silymarin 100 mg/kg
Description: (§1) All mice were randomly divided into six groups (n = 8): normal control group (NC); LPS/D-GalN group; OBB-ASDs25 group (25 mg/kg OBB-HPMCAS); OBB-ASDs50 group (50 mg/kg OBB-HPMCAS); OBB-SUS group (50 mg/kg OBB suspension); Silymarin group (100 mg/kg Silymarin). The drug dosage design for the ALI trial was primarily based on our previous research findings[25] and preclinical experiments. Except for NC and LPS/D-GalN groups, all other groups of mice were respectively pretreated by gavage with the corresponding dose of OBB-ASDs, OBB-SUS, and Silymarin once daily for 7 consecutive days. Mice in NC and LPS/D-GalN group were given the same volume of saline by intragastric administration. At 2 h postdose, all mice (except the NC group) were exposed to 30 μg/kg LPS and 600 mg/kg D-GalN. Mice in NC group were received the same volume of PBS intraperitoneally. After challenging for 6 h, blood samples were collected from the eyeball vein under 2% sodium pentobarbital anesthesia. Subsequently, the liver was immediately dissected, weighed, washed with saline, and stored at − 80 °C until further analyzed.
Liver tissue pathology was evaluated by regular hematoxylin–eosin (H&E) staining. […] According to the scoring system, liver injury was evaluated by pathologists blinded to the experimental protocol. Scores were determined as Dkhil et al. previously described (Table 3)[26].

[3] = Preliminary experiment: absorption and oral bioavailability; format: in vivo; conditions: pure OBB
[4] = In vivo oral bioavailability study; design: species or system SD rats; conditions: male, rat plasma OBB, 100 mg/kg, n = 6, mean ± SD
Description: Male SD rats weighing 220 ± 15 g were obtained from the Guangdong Medical Laboratory Animal Center (GDMLAC, Guangzhou, China). After fasting overnight, six rats were taken in each group, based on respective treatment at a dose of 100 mg/kg each: OBB-HPMCAS and OBB-SUS (OBB suspension). After isoflurane anesthesia, blood samples were collected from the posterior orbital venous plexus at 5, 10, 20, 30, 60, 90, 120, 180, 240, 360, 480, 720, and 1440 min, respectively. After centrifugation (12,000 rpm, 5 min), plasma was collected and stored at − 80 °C for further analysis. For deproteinization of plasma, ethyl acetate (200 μL) was added to the mixture and vortexed for 3 min. After centrifugation for […], the supernatant was collected and vacuum dried at 40 °C, − 0.8 Mpa. The residue was redissolved with 100 μL methanol/water (50:50, v/v). After centrifugation (12,000 rpm, 10 min), the supernatant was analyzed by LC–MS/MS system. Pharmacokinetic parameters were calculated based on the plasma pharmacokinetics of OBB. The peak concentration (Cmax), time of the peak concentration (Tmax), half-life (T1/2), and area under the profile from time 0 to 24 h (AUC0-24), were calculated using a DAS software (Version 2.0; Drug And Statistics, Shanghai, China, RRID: SCR_022672).

[5] = system: kidneys; experiment: Chronic nephrotoxicity assessment (kidney HE staining); format: in vivo, C57BL/6 mice; conditions: mice, oral, 50 mg/kg, continuous administration for 4, 8, and 16 weeks
Description: Male C57BL/6 mice were orally administered OBB and OBB-HPMCAS at a dose of 50 mg/kg for 16 weeks. Kidney tissues were collected at 4, 8, and 16 weeks for HE staining to observe the long-term effects of OBB administration on the kidneys.

[6] = In vitro dissolution study (paddle method); format: physicochemical; conditions: 0.3% SDS medium, 37 °C
Description: The dissolution Apparatus II (stirring paddle method) was utilized for the in vitro dissolution studies at a rotation speed of 100 ± 1 rpm in 250 mL 0.3% (w/v) sodium dodecyl sulfate (SDS) aqueous solution medium with a ZRS-8G dissolution tester (Tianjin Haiyida Technology Co., Ltd, Tianjin, China). All experiments were performed at 37 ± 0.5 °C. The OBB-ASDs samples were weighed to be equivalent to 2 mg of OBB. At predetermined time points (0, 5, 10, 20, 30, 60, and 90 min), 0.5 mL of sample solution was taken out and replaced with the same volume of fresh SDS solution (37 ± 0.5 °C). After being filtered through a 0.22 μm syringe filter, the filtered samples were collected and analyzed by HPLC.

[7] = system: hepatic inflammatory mediators and oxidative stress in ALI mice; experiment: LPS/D-GalN-induced ALI, liver biochemical assessment (oxidative and inflammatory stress); format: in vivo, C57BL/6 mice
Description: as §1
Fresh liver tissues were homogenized in Tris–HCl buffer (pH 7.4) and centrifuged at 4500 rpm for 15 min (4 °C). Subsequently, the supernatants were collected and assayed for MDA, SOD, GSH, MCP-1, TNF-α, IL-1β, and IL-6 using its specific commercially available assay kit following the manufacturer’s instructions.

[8] = design: method as in PMID 30599908; conditions: cited from earlier work
[9] = system: LPS/D-GalN-induced acute liver injury (ALI) mice; experiment: LPS/D-GalN-induced ALI, liver function analysis (serum ALT, AST); format: in vivo, C57BL/6 mice; conditions: gavage once daily 7 days; OBB-ASDs 25 and 50 mg/kg, OBB-SUS 50 mg/kg, Silymarin 100 mg/kg; P < 0.05
Description: as §1
After centrifugated at 3000 g for 10 min, serum was acquired and the activities of ALT and AST were measured using commercial kits (Nanjing Jiancheng, China) following the manufacturer’s instructions.

[10] = system: ALI challenged by LPS/D-GalN; design: method as in PMID 35691465; conditions: previous research ref 8; cited from earlier work
[11] = system: non-alcoholic fatty liver disease (NAFLD); design: method as in PMID 33831691; conditions: cited from earlier work
[12] = higher in LPS/D-GalN challenged mice
[13] = qRT-PCR, elevation after LPS/D-GalN exposure
[14] = compared with the LPS/D-GalN group
[15] = pretreatment 7 days, OBB-ASDs 25 and 50 mg/kg, OBB-SUS 50 mg/kg, Silymarin 100 mg/kg, vs LPS/D-GalN group

absorption and oral bioavailability [3]: poor | Cmax [4]: 169 ± 18.6 ng/mL | Tmax [4]: 4.67 ± 0.52 h | half-life [4]: 2.99 ± 0.42 h | AUC(0-t) ([4]; read-out: AUC0-24): 1260 ± 130 ng·h/mL | release / dissolution rate, pure OBB compared with formulations [6]: significantly slower
SMILES: COc1ccc2cc3n(c(=O)c2c1OC)CCc1cc2c(cc1-3)OCO2 [OBB, 8-Oxyberberine]
MyD88 mRNA expression (real-time PCR) [1, 12]: restored | TLR4 mRNA expression (real-time PCR) [1, 12]: restored | IL-1β mRNA expression level in liver [1, 13]: markedly restore | IL-6 mRNA expression level in liver [1, 13]: markedly restore | liver tissue injury (H&E staining) vs model group [2]: conspicuously mitigated | kidney damage (HE staining) [5]: no significant kidney damage | hepatic CAT content [7, 14]: increasing | hepatic GSH content [7, 14]: increasing | hepatic MDA level [7, 14]: dramatically suppressed | hepatic SOD content [7, 14]: increasing | IL-1β level in liver [7, 15]: largely decreased | IL-6 level in liver [7, 15]: largely decreased | MCP-1 level in liver [7, 15]: largely decreased | TNF-α level in liver [7, 15]: largely decreased | solubility in water [8]: poorly soluble in water | serum ALT level vs LPS/D-GalN group [9]: extremely reduced | serum AST level vs LPS/D-GalN group [9]: extremely reduced | effect on ALI challenged by LPS/D-GalN [10]: effectively attenuated | effect on non-alcoholic fatty liver disease (NAFLD) [11]: pronounced therapeutic effect

From publication PMC11213902, “Enhancing hepatoprotective action: oxyberberine amorphous solid dispersion system targeting TLR4” (Scientific Reports, 2024)
